pIC50: −log10 of the molar value.
How the values were obtained:
[1] = test system: SF268 (glioblastoma) tumor cell line; assay: MTT proliferation assay, SF268; assay type: cell-based; conditions: Homo sapiens, SF-268, 120 h, 5 days
Experimental: (§1) Human tumor cell lines were obtained from the American Type Culture Collection, the National Cancer Institute or from the originator as a kind gift. All cells were grown in RPMI 1640 (Invitrogen) medium containing 10% fetal bovine serum and 2 mM L-glutamine.
(§2) Logarithmically growing cells cultured in T75 flasks (Falcon) were harvested and inoculated into 96 well microtiter plates in 100 μL at plating densities ranging from 2,000 to 5,000 cells/well depending on the doubling time of individual cell lines. After cell inoculation, the microtiter plates are incubated at 37° C., 5% CO2, 95% air and 100% relative humidity for 24 h prior to addition of drug.
(§3) After 24 h, one plate of each cell line is developed with MTT (3-4,5-Dimethylthiazol-2-yl)-2,5-diphenyltetrazolium bromide, yellow), which is reduced to purple formazan in the mitochondria of living cells. […] The absorbance of this colored solution can be quantified by measuring at a certain wavelength (usually between 500 and 600 nm) by a spectrophotometer. […] The d0 growth value for each cell line is later deducted from each of the readouts at termination of the experiment. Essentially the final readouts are normalized for baseline growth, which enables us direct deduction of growth inhibition parameters from the graphed data. […]
(§4) Two independent experiments were conducted and the IC50 concentrations calculated plus/minus standard deviation.

human tumor cell lines = assay: MTT proliferation assay, human tumor cell lines; assay type: cell-based; conditions: H23, H460, DU-145; IC50 comparison
Experimental: as §1, §2, §3, §4

[2] = test system: H23 (lung) tumor cell line; assay: MTT proliferation assay, H23; assay type: cell-based, human; conditions: FIG. 1A
Experimental: as §1, §2, §3, §4

[3] = test system: H460 (lung) tumor cell line; assay: MTT proliferation assay, H460; assay type: cell-based, human; conditions: FIG. 1B
Experimental: as §1, §2, §3, §4

[4] = test system: DU-145 (prostate) tumor cell line; assay: MTT proliferation assay, DU-145; assay type: cell-based, human; conditions: FIG. 1C
Experimental: as §1, §2, §3, §4

pIC50 [1]	IC50 values (range in words) [2]	IC50 values (range in words) [3]	IC50 values (range in words) [4]	Structure (SMILES)	potency compared with VMD in the same cell lines (human tumor cell lines)
6.48	–	–	–	O=C(O)c1ccc(N2CCN(CCCn3c4c(n[n+]3[O-])C(=O)c3ccccc3C4=O)CC2)cc1 [Compound 101]	–
–	high μM range	high μM range	high μM range	CN(C)CC[C@H](CSc1ccccc1)Nc1ccc(S(=O)(=O)NC(=O)c2ccc(N3CCN(Cc4ccccc4-c4ccc(Cl)cc4)CC3)cc2)cc1[N+](=O)[O-] [Abt-737]	at least two-order of magnitude less potent
